Laboratory results taken from article PMC8074287, “Analgesic and Anticancer Activity of Benzoxazole Clubbed 2-Pyrrolidinones as Novel Inhibitors of Monoacylglycerol Lipase” (Molecules, 2021).

Assays:
[1] = test system: SNB-19; assay: NCI60 single-dose SRB assay; format: cell-based, human; conditions: SNB-19, CNS Cancer, 10 μM
Protocol: (§1) Compounds 19 and 20 were supplied to National Cancer Institute (USA), for sulforhodamine B (SRB) assay and anticancer screening. Single-dose (10 µM) assay results for compounds 19 and 20 were provided as a mean of percent growth (% G) and growth inhibition (% GI) against 60 cell lines of nine types of cancers and are tabulated in Table 4. […] Both the compounds 19 and 20 were also found active on UO-31 renal cancer cell line with % GI of 21.18 and 29.95, respectively.
(§2) Compounds 19 and 20 were supplied to National Cancer Institute (Bethesda, Maryland, USA), for in vitro sulforhodamine B (SRB) assay, anticancer screening on 60 cell lines of cancers of leukemia, melanoma, and tumors of the kidney, brain, breast, lung, colon, ovary, and prostate, as per their standard protocol. One dose anticancer results (NCI, USA) of compounds 19 and 20 are provided in the Supplementary Materials.

[2] = test system: MCF7; assay: NCI60 single-dose SRB assay; format: cell-based, human; conditions: MCF7, Breast Cancer, 10 μM
Protocol: as §1, §2

[3] = test system: HOP-62; assay: NCI60 single-dose SRB assay; format: cell-based, human; conditions: HOP-62, Non-Small Cell Lung Cancer, 10 μM
Protocol: as §1, §2

[4] = test system: A549/ATCC; assay: NCI60 single-dose SRB assay; format: cell-based, human; conditions: Non-Small Cell Lung Cancer, 10 μM
Protocol: as §1, §2

[5] = test system: U251; assay: NCI60 single-dose SRB assay; format: cell-based, human; conditions: U251, CNS Cancer, 10 μM
Protocol: as §1, §2

[6] = test system: KM12; assay: NCI60 single-dose SRB assay; format: cell-based, human; conditions: KM12, Colon Cancer, 10 μM
Protocol: as §1, §2

[7] = test system: LOX IMVI; assay: NCI60 single-dose SRB assay; format: cell-based, human; conditions: Melanoma, 10 μM
Protocol: as §1, §2

[8] = test system: SW-620; assay: NCI60 single-dose SRB assay; format: cell-based, human; conditions: SW-620, Colon Cancer, 10 μM
Protocol: as §1, §2

[9] = test system: OVCAR-8; assay: NCI60 single-dose SRB assay; format: cell-based, human; conditions: OVCAR-8, Ovarian Cancer, 10 μM
Protocol: as §1, §2

[10] = test system: TK-10; assay: NCI60 single-dose SRB assay; format: cell-based, human; conditions: TK-10, Renal Cancer, 10 μM
Protocol: as §1, §2

[11] = test system: OVCAR-3; assay: NCI60 single-dose SRB assay; format: cell-based, human; conditions: OVCAR-3, Ovarian Cancer, 10 μM
Protocol: as §1, §2

[12] = test system: MALME-3M; assay: NCI60 single-dose SRB assay; format: cell-based, human; conditions: Melanoma, 10 μM
Protocol: as §1, §2

[13] = test system: RPMI-8226; assay: NCI60 single-dose SRB assay; format: cell-based, human; conditions: RPMI-8226, Leukemia, 10 μM
Protocol: as §1, §2

[14] = test system: CCRF-CEM; assay: NCI60 single-dose SRB assay; format: cell-based, human; conditions: Leukemia, 10 μM
Protocol: as §1, §2

[15] = test system: SF-268; assay: NCI60 single-dose SRB assay; format: cell-based, human; conditions: SF-268, CNS Cancer, 10 μM
Protocol: as §1, §2

[16] = test system: CAKI-1; assay: NCI60 single-dose SRB assay; format: cell-based, human; conditions: CAKI-1, Renal Cancer, 10 μM
Protocol: as §1, §2

[17] = test system: HCT-116; assay: NCI60 single-dose SRB assay; format: cell-based, human; conditions: HCT-116, Colon Cancer, 10 μM
Protocol: as §1, §2

[18] = test system: UO-31; assay: NCI60 single-dose SRB assay; format: cell-based, human; conditions: UO-31, Renal Cancer, 10 μM
Protocol: as §1, §2

[19] = test system: A498; assay: NCI60 single-dose SRB assay; format: cell-based, human; conditions: A498, Renal Cancer, 10 μM
Protocol: as §1, §2

[20] = test system: K-562; assay: NCI60 single-dose SRB assay; format: cell-based, human; conditions: K-562, Leukemia, 10 μM
Protocol: as §1, §2

[21] = test system: HL-60(TB); assay: NCI60 single-dose SRB assay; format: cell-based, human; conditions: Leukemia, 10 μM
Protocol: as §1, §2

[22] = test system: DU-145; assay: NCI60 single-dose SRB assay; format: cell-based, human; conditions: DU-145, Prostate Cancer, 10 μM
Protocol: as §1, §2

[23] = test system: NCI-H460; assay: NCI60 single-dose SRB assay; format: cell-based, human; conditions: NCI-H460, Non-Small Cell Lung Cancer, 10 μM
Protocol: as §1, §2

[24] = test system: COLO 205; assay: NCI60 single-dose SRB assay; format: cell-based, human; conditions: COLO 205, Colon Cancer, 10 μM
Protocol: as §1, §2

[25] = test system: ACHN; assay: NCI60 single-dose SRB assay; format: cell-based, human; conditions: Renal Cancer, 10 μM
Protocol: as §1, §2

[26] = test system: UACC-257; assay: NCI60 single-dose SRB assay; format: cell-based, human; conditions: UACC-257, Melanoma, 10 μM
Protocol: as §1, §2

[27] = test system: MDA-MB-468; assay: NCI60 single-dose SRB assay; format: cell-based, human; conditions: MDA-MB-468, Breast Cancer, 10 μM
Protocol: as §1, §2

[28] = molecular target: T1, hMAGL (Homo sapiens, UniProt Q99685); assay: Human MAGL inhibition assay (Cayman's assay kit)
T1 sequence (Q99685 1-303): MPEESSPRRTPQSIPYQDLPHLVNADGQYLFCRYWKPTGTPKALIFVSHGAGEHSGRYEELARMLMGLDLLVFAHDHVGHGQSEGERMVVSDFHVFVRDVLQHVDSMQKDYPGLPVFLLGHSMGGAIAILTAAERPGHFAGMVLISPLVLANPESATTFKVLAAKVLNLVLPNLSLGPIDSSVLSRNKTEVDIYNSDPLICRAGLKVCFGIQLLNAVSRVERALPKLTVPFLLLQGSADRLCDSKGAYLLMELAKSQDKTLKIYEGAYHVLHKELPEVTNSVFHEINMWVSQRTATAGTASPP

NS(=O)(=O)c1ccc(N2CC(c3nc4ccccc4o3)CC2=O)cc1 (stereo not shown) [Compound 20, 4-(4-(Benzo[d]oxazol-2-yl)-2-oxopyrrolidin-1-yl)benzenesulfonamide]
% G [1]: 97.02%
% GI [1]: 2.98%
% G [2]: 92.32%
% GI [2]: 7.68%
% G [3]: 81.97%
% GI [3]: 18.03%
% G [4]: 95.28%
% GI [4]: 4.72%
% G [5]: 95.21%
% GI [5]: 4.79%
% G [6]: 101.16%
% GI [6]: −1.16%
% G [7]: 92.99%
% GI [7]: 7.01%
% G [8]: 102.95%
% GI [8]: −2.95%
% G [9]: 97.49%
% GI [9]: 2.51%
% G [10]: 114.82%
% GI [10]: −14.82%
% G [11]: 98.53%
% GI [11]: 1.47%
% G [12]: 93.29%
% GI [12]: 6.71%
% G [13]: 103.53%
% GI [13]: −3.53%
% G [14]: 94.48%
% GI [14]: 5.52%
% G [15]: 87.43%
% GI [15]: 12.57%
% G [16]: 92.35%
% GI [16]: 7.65%
% G [17]: 95.78%
% G [18]: 70.05%
% GI [18]: 29.95%
% G [19]: 113.94%
% GI [19]: −13.94%
% G [20]: 98.83%
% GI [20]: 1.17%
% G [21]: 96.15%
% GI [21]: 3.85%
% G [22]: 111.62%
% GI [22]: −11.62%
% G [23]: 104.20%
% GI [23]: −4.20%
% G [24]: 104.05%
% GI [24]: −4.05%
% G [25]: 89.48%
% GI [25]: 10.52%
% G [26]: 110.78%
% GI [26]: −10.78%
% G [27]: 100.34%
% GI [27]: −0.34%
IC50 [28]: 7.6 ± 0.8 nM

O=C1CC(c2nc3ccccc3o2)CN1c1ccc([N+](=O)[O-])cc1 (stereo not shown) [Compound 19, 4-(Benzo[d]oxazol-2-yl)-1-(4-nitrophenyl)pyrrolidin-2-one]
% G [1]: 99.29%
% GI [1]: 0.71%
% G [2]: 99.19%
% GI [2]: 0.81%
% G [3]: 85.04%
% GI [3]: 14.96%
% G [4]: 100.60%
% GI [4]: −0.60%
% G [5]: 100.97%
% GI [5]: −0.97%
% G [6]: 105.43%
% GI [6]: −5.43%
% G [7]: 89.06%
% GI [7]: 10.94%
% G [8]: 102.52%
% GI [8]: −2.52%
% G [9]: 101.95%
% GI [9]: −1.95%
% G [10]: 110.14%
% GI [10]: −10.14%
% G [11]: 98.56%
% GI [11]: 1.44%
% G [12]: 88.53%
% GI [12]: 11.47%
% G [13]: 101.28%
% GI [13]: −1.28%
% G [14]: 93.58%
% GI [14]: 6.42%
% G [15]: 91.85%
% GI [15]: 8.15%
% G [16]: 97.19%
% GI [16]: 2.81%
% G [17]: 102.14%
% GI [17]: −2.14%
% G [18]: 78.82%
% GI [18]: 21.18%
% G [19]: 113.46%
% GI [19]: −13.46%
% G [20]: 98.41%
% GI [20]: 1.59%
% G [21]: 100.09%
% GI [21]: −0.09%
% G [22]: 110.09%
% GI [22]: −10.09%
% G [23]: 102.33%
% GI [23]: −2.33%
% G [24]: 103.79%
% GI [24]: −3.79%
% G [25]: 91.70%
% GI [25]: 8.3%
% G [26]: 106.92%
% GI [26]: −6.92%
% G [27]: 98.03%
% GI [27]: 1.97%
IC50 [28]: 8.4 ± 1.9 nM
